Measurements published in ChEMBL document CHEMBL2203133 (J Med Chem, 2012).
Values after ≈ are worked out from the molar mass of the structure shown. Each block holds one compound with its values, some of them ahead of it. Active and inactive are the calls of the source. The calls are words filed in the database; no cut-off is given here.

Legend:
[1] = target: T1, Serine/threonine-protein kinase Chk1 (Homo sapiens, UniProt O14757)
T1 sequence (O14757 whole entry): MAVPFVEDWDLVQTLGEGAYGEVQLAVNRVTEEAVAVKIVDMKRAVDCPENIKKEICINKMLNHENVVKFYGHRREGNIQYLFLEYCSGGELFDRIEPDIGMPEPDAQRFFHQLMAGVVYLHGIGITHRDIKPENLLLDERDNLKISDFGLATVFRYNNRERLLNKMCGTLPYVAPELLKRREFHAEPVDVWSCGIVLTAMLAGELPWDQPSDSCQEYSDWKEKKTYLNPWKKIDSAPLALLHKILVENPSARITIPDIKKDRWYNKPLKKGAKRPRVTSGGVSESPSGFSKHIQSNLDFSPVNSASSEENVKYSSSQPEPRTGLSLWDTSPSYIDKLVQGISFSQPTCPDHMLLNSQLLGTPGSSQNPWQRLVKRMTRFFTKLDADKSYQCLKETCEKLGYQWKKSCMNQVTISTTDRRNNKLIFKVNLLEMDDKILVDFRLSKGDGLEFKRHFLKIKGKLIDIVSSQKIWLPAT

hERG (KCNH2) [2] = target: T2, hERG (KCNH2) (Homo sapiens, UniProt Q12809); assay: Inhibition of human ERG overexpressed in HEK cells at 11 uM; format: cell-based, HEK293; details: HEK cells overexpressing human ERG
T2 sequence (Q12809 whole entry): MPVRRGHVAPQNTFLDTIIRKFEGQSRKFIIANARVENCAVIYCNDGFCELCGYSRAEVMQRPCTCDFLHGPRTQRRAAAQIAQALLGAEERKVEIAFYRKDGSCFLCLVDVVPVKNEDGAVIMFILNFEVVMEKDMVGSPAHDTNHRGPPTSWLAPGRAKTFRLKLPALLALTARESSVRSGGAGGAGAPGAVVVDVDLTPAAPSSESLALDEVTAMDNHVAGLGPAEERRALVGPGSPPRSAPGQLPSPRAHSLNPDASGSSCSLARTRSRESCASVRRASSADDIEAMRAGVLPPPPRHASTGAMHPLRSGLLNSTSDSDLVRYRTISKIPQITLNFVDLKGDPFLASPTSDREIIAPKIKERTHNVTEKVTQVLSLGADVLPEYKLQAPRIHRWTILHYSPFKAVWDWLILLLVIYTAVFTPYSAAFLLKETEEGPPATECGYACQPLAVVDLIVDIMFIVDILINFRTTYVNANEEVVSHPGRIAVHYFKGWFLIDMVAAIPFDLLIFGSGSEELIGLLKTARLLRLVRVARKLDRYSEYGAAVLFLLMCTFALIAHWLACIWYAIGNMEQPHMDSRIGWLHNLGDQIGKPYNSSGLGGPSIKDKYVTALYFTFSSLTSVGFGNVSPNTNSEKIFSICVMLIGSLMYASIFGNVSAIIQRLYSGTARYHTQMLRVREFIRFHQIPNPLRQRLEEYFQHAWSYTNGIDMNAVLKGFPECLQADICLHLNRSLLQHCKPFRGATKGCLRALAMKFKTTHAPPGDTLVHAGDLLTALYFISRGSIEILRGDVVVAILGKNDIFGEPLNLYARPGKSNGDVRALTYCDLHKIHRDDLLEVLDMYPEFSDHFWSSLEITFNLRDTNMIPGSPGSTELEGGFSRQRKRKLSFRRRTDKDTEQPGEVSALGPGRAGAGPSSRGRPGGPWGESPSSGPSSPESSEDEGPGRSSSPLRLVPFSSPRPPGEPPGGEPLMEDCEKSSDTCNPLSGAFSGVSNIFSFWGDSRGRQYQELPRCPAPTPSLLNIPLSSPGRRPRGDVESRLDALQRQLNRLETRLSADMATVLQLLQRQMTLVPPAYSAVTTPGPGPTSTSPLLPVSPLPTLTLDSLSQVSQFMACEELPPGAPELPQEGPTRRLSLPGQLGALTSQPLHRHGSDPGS

Mus musculus [3] = assay: Toxicity in athymic mouse xenografted with human HT-29 cells assessed as body weight loss at 12.5 mg/kg, ip tid for 7 days; format: organism-based; design: dose 12.5 mg/kg, route intraperitoneal; details: in vivo, 168 h
HT-29 = assay: Antitumor activity against human HT-29 cells xenografted in athymic mouse assessed as tumor growth delay at 12.5 mg/kg, ip tid for 7 days (reference value: 6.9 1.5); format: functional; details: route intraperitoneal
[4] = target: Voltage-gated inwardly rectifying potassium channel KCNH2 (Homo sapiens, UniProt Q12809)
Sequence of Voltage-gated inwardly rectifying potassium channel KCNH2 (Q12809 whole entry): as above

[5] = Plasma concentration in BALB/c mouse at 10 mg/kg, po at 1 hr; format: ADME, organism-based; design: dose 10 mg/kg, route oral
[6] = Plasma concentration in BALB/c mouse at 10 mg/kg, iv at 6 hrs administered as bolus dose; format: ADME, organism-based; design: dose 10 mg/kg, route intravenous
[7] = Plasma concentration in BALB/c mouse at 10 mg/kg, iv at 1 hr administered as bolus dose; format: ADME, organism-based; design: dose 10 mg/kg, route intravenous
in vitro = details: mouse, liver microsomes
[8] = Plasma concentration in BALB/c mouse at 10 mg/kg, po at 6 hrs; format: ADME, organism-based; design: dose 10 mg/kg, route oral
Caco-2 = details: human
Description: Permeability across apical to basolateral side in human Caco2 cells

[9] = Aqueous solubility in phosphate buffer at pH 6.5; format: physicochemical
[10] = Toxicity in po dosed mouse; format: organism-based; details: in vivo
Mus musculus [11] = assay: Oral bioavailability in BALB/c mouse at 10 mg/kg; format: ADME, organism-based; details: in vivo
Mus musculus [12] = species: Mus musculus; details: SW-620, 160 mg/kg
[13] = Thermodynamic solubility of the compound in water; format: physicochemical
Mus musculus [14] = assay: Clearance in BALB/c mouse at 10 mg/kg, iv and po; format: ADME, organism-based; design: dose 10 mg/kg, route oral; details: in vivo
[15] = target: Serine/threonine-protein kinase Chk2 (Homo sapiens, UniProt O96017)
Sequence of Serine/threonine-protein kinase Chk2 (O96017 whole entry): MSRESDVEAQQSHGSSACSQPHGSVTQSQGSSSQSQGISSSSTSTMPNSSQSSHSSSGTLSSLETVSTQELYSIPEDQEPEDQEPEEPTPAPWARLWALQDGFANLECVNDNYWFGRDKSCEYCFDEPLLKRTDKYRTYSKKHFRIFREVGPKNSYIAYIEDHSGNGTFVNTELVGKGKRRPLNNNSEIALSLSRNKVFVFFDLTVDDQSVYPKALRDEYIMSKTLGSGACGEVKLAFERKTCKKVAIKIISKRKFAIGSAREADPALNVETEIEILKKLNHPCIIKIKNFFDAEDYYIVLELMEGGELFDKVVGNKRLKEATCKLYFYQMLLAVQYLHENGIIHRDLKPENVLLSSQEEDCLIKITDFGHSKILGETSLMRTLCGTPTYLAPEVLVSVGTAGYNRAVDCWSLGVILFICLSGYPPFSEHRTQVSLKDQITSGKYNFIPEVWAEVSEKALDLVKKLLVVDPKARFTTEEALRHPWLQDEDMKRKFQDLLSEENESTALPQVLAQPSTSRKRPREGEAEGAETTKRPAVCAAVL

[16] = target: Cyclin-dependent kinase 1 (Homo sapiens, UniProt P06493)
Sequence of Cyclin-dependent kinase 1 (P06493 whole entry): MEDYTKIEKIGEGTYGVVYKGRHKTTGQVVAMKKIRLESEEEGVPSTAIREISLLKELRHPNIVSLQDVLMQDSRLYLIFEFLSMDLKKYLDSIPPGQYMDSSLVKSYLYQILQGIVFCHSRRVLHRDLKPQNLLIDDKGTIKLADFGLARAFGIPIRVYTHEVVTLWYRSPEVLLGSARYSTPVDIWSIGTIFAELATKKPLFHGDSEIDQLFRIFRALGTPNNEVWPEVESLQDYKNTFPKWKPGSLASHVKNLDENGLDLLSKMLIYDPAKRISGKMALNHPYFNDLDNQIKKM

[17] = Drug uptake in human SW620 cells xenografted in athymic nude mouse at 160 mg/kg, po measured at 6 to 12 hrs in presence of gemcitabine; format: ADME, organism-based, SW-620; design: dose 160 mg/kg, route oral; details: in vivo
Mus musculus [18] = species: Mus musculus; details: SW-620, 160 mg/kg; remark: listed apart in the source
Mus musculus [19] = assay: Volume of distribution at steady state in BALB/c mouse at 10 mg/kg, iv and po; format: ADME, organism-based; design: dose 10 mg/kg, route oral; details: in vivo
Plasma = assay: Plasma protein binding in human; format: ADME, cell-free
Mus musculus [20] = assay: Inhibition of CHK1 in human SW620 cells xenografted in athymic nude mouse at 300 mg/kg, po measured at 12 hrs by Western blot analysis in presence of gemcitabine; format: functional, organism-based; design: dose 300 mg/kg; details: SW-620
[21] = target: AMP-activated protein kinase, AMPK (Homo sapiens) (UniProt P54646+O43741+P54619+Q9UGJ0+Q9Y478+Q13131+Q9UGI9); assay: Inhibition of human AMPK at 1 uM by radiometric assay in presence of ATP; format: protein-complex assay
Mus musculus [22] = assay: Toxicity in athymic mouse xenografted with human HT-29 cells assessed as body weight loss at 75 mg/kg, po tid for 7 days; format: organism-based; design: dose 75 mg/kg, route oral; details: in vivo, 168 h
Mus musculus [23] = assay: Toxicity in athymic mouse xenografted with human SW620 cells assessed as body weight loss at 75 mg/kg, po tid for 4 days; format: organism-based, SW-620; design: dose 75 mg/kg, route oral; details: in vivo, 96 h
[24] = Drug uptake in human SW620 cells xenografted in athymic nude mouse at 300 mg/kg, po measured at 6 to 12 hrs in presence of gemcitabine; format: ADME, organism-based, SW-620; design: dose 300 mg/kg, route oral; details: in vivo
[25] = target: High affinity nerve growth factor receptor (Homo sapiens) (UniProt P04629); assay: Inhibition of human TRKA at 1 uM by radiometric assay in presence of ATP
[26] = target: Potassium voltage-gated channel subfamily A member 5 (Homo sapiens) (UniProt P22460); assay: Inhibition of human Kv1.5 at 10 uM
Mus musculus [27] = assay: Inhibition of CHK1 autophosphorylation in human SW620 cells xenografted in athymic nude mouse at 300 mg/kg, po measured at 6 hrs by Western blot analysis in presence of gemcitabine; format: functional, organism-based; design: dose 300 mg/kg; details: SW-620
Kv4.3/KchIP2 = Kv4.3/KchIP2 (Homo sapiens, UniProt Q9NS61+Q9UK17); assay: Inhibition of human Kv4.3/KchIP2 at 10 uM; format: protein-complex assay
KCNQ1/MINK (IKs) = KCNQ1/MINK (IKs) (Homo sapiens, UniProt P15382+P51787); assay: Inhibition of human KCNQ1/MINK at 10 uM; format: protein-complex assay
[28] = target: Potassium/sodium hyperpolarization-activated cyclic nucleotide-gated channel 4 (Homo sapiens) (UniProt Q9Y3Q4); assay: Inhibition of human HCN4 at 10 uM
Cav1.2 = Cav1.2 (Homo sapiens, UniProt Q13936); assay: Inhibition of human Cav1.2 at 10 uM
Kir2.1 = Kir2.1 (Homo sapiens, UniProt P63252); assay: Inhibition of human Kir2.1 at 10 uM
Mus musculus [29] = assay: Toxicity in athymic mouse xenografted with human Calu6 cells assessed as body weight loss at 75 mg/kg, po tid for 7 days; format: organism-based, Calu-6; design: dose 75 mg/kg, route oral; details: in vivo, 168 h
Nav1.5 = Nav1.5 (Homo sapiens, UniProt Q14524); assay: Inhibition of human Nav1.5 at 10 uM
[30] = target: Ribosomal protein S6 kinase alpha-3 (Homo sapiens) (UniProt P51812); assay: Inhibition of human RSK2 at 1 uM by radiometric assay in presence of ATP
[31] = target: Serine/threonine-protein kinase BRSK1 (Homo sapiens) (UniProt Q8TDC3); assay: Inhibition of human BRSK1 at 1 uM by radiometric assay in presence of ATP
Sequence of Serine/threonine-protein kinase BRSK1 (Homo sapiens) (Q8TDC3 whole entry): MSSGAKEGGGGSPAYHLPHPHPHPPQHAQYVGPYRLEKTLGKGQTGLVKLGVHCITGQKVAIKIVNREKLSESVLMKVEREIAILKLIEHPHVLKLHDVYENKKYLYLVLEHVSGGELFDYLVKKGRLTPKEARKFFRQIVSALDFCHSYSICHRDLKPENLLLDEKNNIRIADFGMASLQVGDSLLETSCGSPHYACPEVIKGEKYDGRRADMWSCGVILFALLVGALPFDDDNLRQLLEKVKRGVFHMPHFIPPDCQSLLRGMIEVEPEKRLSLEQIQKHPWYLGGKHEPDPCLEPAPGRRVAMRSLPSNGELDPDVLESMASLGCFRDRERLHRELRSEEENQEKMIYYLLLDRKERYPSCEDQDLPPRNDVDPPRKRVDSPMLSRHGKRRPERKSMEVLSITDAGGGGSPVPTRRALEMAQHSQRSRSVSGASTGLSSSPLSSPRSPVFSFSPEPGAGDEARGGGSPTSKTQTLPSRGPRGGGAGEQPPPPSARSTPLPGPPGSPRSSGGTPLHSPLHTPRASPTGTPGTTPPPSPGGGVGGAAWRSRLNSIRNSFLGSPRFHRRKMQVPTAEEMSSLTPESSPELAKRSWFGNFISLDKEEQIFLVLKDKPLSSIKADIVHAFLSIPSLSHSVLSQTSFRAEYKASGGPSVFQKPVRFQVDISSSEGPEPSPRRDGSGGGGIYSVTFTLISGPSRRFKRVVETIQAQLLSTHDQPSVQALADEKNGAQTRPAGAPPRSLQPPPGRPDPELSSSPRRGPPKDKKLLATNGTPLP

[32] = target: Ribosomal protein S6 kinase alpha-1 (Homo sapiens) (UniProt Q15418); assay: Inhibition of human RSK1 at 1 uM by radiometric assay in presence of ATP
Sequence of Ribosomal protein S6 kinase alpha-1 (Homo sapiens) (Q15418 whole entry): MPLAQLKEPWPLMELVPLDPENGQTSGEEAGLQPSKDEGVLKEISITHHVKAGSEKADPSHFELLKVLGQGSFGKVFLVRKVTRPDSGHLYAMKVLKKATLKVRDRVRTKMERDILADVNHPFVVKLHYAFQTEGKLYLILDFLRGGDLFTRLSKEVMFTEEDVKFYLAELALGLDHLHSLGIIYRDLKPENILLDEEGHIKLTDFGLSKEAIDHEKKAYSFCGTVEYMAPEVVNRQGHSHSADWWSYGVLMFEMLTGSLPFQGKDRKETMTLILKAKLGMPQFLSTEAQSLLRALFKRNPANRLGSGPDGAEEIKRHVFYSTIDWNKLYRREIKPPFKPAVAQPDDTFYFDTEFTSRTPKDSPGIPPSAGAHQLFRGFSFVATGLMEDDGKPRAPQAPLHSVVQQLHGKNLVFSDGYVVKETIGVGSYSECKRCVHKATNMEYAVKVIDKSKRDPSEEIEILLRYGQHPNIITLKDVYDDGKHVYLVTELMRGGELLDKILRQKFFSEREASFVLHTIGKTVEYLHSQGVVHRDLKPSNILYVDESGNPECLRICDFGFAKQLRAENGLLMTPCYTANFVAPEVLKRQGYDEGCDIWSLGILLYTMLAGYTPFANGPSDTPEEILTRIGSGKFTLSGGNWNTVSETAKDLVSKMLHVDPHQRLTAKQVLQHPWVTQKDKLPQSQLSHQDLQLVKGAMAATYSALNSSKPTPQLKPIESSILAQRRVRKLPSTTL

[33] = target: Interleukin-1 receptor-associated kinase 1 (Homo sapiens) (UniProt P51617); assay: Inhibition of human IRAK1 at 1 uM by radiometric assay in presence of ATP
hERG (KCNH2) [34] = target: T2, hERG (KCNH2); assay: Inhibition of human ERG overexpressed in HEK cells at 10 uM; format: cell-based, HEK293; details: HEK cells overexpressing human ERG

SMILES: CCc1c2c(nc3ccc(OC(=O)N4CCC(N5CCCCC5)CC4)cc13)-c1cc3c(c(=O)n1C2)COC(=O)[C@]3(O)CC [IRINOTECAN]
Activity (Mus musculus [3]): Non-toxic | Time (HT-29): 6.4 days

SMILES: CSc1cc(Nc2cnc(C#N)c(O[C@H](C)CN(C)C)n2)ncc1-c1cnn(C)c1
IC50 [1]: 27 nM | IC50 [4]: 8000 nM

SMILES: CNc1cc(Nc2cnc(C#N)c(O[C@H](C)CN(C)C)n2)ncc1-c1cnn(C)c1
concentration at 1 h [5]: 555 nM | solubility thermodynamic [9]: > 8000 µg/mL | concentration at 6 h [6]: 45 nM | concentration at 1 h [7]: 910 nM | MTD [10]: 160 mg/kg | F (Mus musculus [11]): 48% | inhibition (Mus musculus [12]): inactive | metabolised at 0.5 h (in vitro): 30% | Therm_solubility [13]: 100 µg/mL | CL (Mus musculus [14]): 0.132 L/h | concentration at 6 h [8]: 57 nM | IC50 [15]: 3200 nM | IC50 [16]: 10000 nM | Drug uptake [17]: Active | inhibition (Mus musculus [18]): Active | permeability (Caco-2): 8.8 ×10⁻⁶ cm/s | IC50 [4]: 12000 nM | Vdss (Mus musculus [19]): 0.209 L | PPB (Plasma): 70%

SMILES: COc1cc(Nc2cnc(C#N)c(O[C@H](C)CN(C)C)n2)ncc1-c1cnn(C)c1
concentration at 1 h [5]: 1120 nM | solubility thermodynamic [9]: 6200 µg/mL (≈ 15.2 mM) | inhibition (Mus musculus [20]): Active | inhibition [21]: > 80% | Activity (Mus musculus [22]): Non-toxic | concentration at 6 h [6]: 27 nM | Activity (Mus musculus [23]): Non-toxic | concentration at 1 h [7]: 1850 nM | Drug uptake [24]: Active | MTD [10]: > 300 mg/kg | inhibition [25]: > 80% | inhibition [26]: < 25% | F (Mus musculus [11]): 61% | inhibition (Mus musculus [27]): Active | inhibition at 10 µM (Kv4.3/KchIP2): < 25% | IC50 [1]: 7.7 nM | metabolised at 0.5 h (in vitro): 38% | Therm_solubility [13]: 70 µg/mL | clearance (Mus musculus [14]): 0.125 L/h | inhibition at 10 µM (KCNQ1/MINK (IKs)): < 25% | concentration at 6 h [8]: 52 nM | inhibition [28]: < 25% | inhibition at 10 µM (Cav1.2): < 25% | IC50 [15]: > 10000 nM | inhibition at 10 µM (Kir2.1): < 25% | Activity (Mus musculus [29]): Non-toxic | IC50 [16]: > 10000 nM | inhibition at 10 µM (Nav1.5): < 25% | inhibition [30]: > 80% | permeability (Caco-2): 29 ×10⁻⁶ cm/s | inhibition [31]: > 80% | IC50 [4]: 5000 nM | inhibition [32]: > 80% | Vdss (Mus musculus [19]): 0.113 L | PPB (Plasma): 82% | inhibition [33]: > 80%

SMILES: CNc1cc(Nc2cnc(C#N)c(O[C@@H]3CCNC3)n2)ncc1-c1cnn(C)c1
inhibition at 10 µM (hERG (KCNH2) [34]): 22%

SMILES: CNc1cc(Nc2cnc(C#N)c(O[C@H](C)CN(C)C)n2)ncc1-c1cccc(F)c1
IC50 [1]: 36 nM | inhibition at 11 µM (hERG (KCNH2) [2]): 103%

The next lines start with results.

IC50 [1]: 46.5 nM
SMILES: COC(=O)c1cnc(Nc2cnc(C#N)c(O[C@@H]3CCNC3)n2)cc1OC
inhibition at 11 µM (hERG (KCNH2) [2]): 44%

concentration at 1 h [5]: 809 nM | concentration at 6 h [6]: 33 nM | concentration at 1 h [7]: 1040 nM | IC50 [1]: 21 nM | metabolised at 0.5 h (in vitro): 43% | concentration at 6 h [8]: 26 nM | permeability (Caco-2): < 4.6 ×10⁻⁶ cm/s
SMILES: CNc1cc(Nc2cnc(C#N)c(O[C@H](C)CN(C)C)n2)ncc1C(F)(F)F
IC50 [4]: 1000 nM

concentration at 1 h [5]: 264 nM | concentration at 6 h [6]: 7 nM | concentration at 1 h [7]: 1180 nM | IC50 [1]: 6.3 nM | metabolised at 0.5 h (in vitro): 18% | concentration at 6 h [8]: 6 nM
SMILES: COc1cc(Nc2cnc(C#N)c(O[C@@H]3CCN(C)C3)n2)ncc1-c1cnn(C)c1
IC50 [4]: 16000 nM

concentration at 1 h [5]: 3 nM | concentration at 6 h [6]: 53 nM | concentration at 1 h [7]: 254 nM | metabolised at 0.5 h (in vitro): 12% | concentration at 6 h [8]: 2 nM
SMILES: CNc1cc(Nc2cnc(C#N)c(O[C@H]3CCNC3)n2)ncc1-c1cnn(C)c1
inhibition at 10 µM (hERG (KCNH2) [34]): 37%

IC50 [1]: 18 nM
SMILES: COC(=O)c1cnc(Nc2cnc(C#N)c(O[C@@H]3CCNC3)n2)cc1SC
inhibition at 10 µM (hERG (KCNH2) [34]): 25%
